Test results taken from US5716982A, “Retinoids and methods of use of same” (priority 1995, dated 1998).
Where two headings read alike, the source gives them in different places.

Assays:
[1] = test system: Human promyelocytic leukemia HL-60 cells; assay: Cell differentiation of HL-60 cells, nitroblue tetrazolium (NBT) reduction; type: cell-based; conditions: for NBT (+) %: HL-60; for EC50: Homo sapiens
Procedure: Human promyelocytic leukemia HL-60 cells were cultured in RPMI-1640 medium supplemented by 10% heat-inactivated calf serum and 100 U/ml of penicillin plus 100 μg/ml of streptomycin. The flasks containing cells and medium were incubated in an incubator with 5% CO2 at 37° C. Log phase cells were seeded into the medium at a concentration of 1.2×10^5to 1.4×10^5 cells per ml and cultured in flasks containing 5 ml of medium. Each group consisted of three flasks. Different concentrations of coumarin-retinoids were added. At intervals following the addition of coumarin-retinoids to the cultures, a small portion of cells was removed and live cells were counted under a light microscope using a dye-exclusionmethod with trypan blue. Cell differentiation was judged in terms of morphology and nitroblue tetrazolium (NBT) reduction.
For a determination of NBT reducing activity, a portion of the coumarin-retinoid-treated cells was removed at intervals following treatment and centrifuged. After centrifugation, 0.5 ml of 0.1% NBT (containing 100 ng TPA) was added to each tube. The contents of the test tubes were then incubated for 1 hour at 37° C. Cell smears were prepared from the cell sediment and stained using the Wright-Giemsa technique. For each smear prepared, 200 cells were isolated for examination under a light microscope with an oil immersion lens. Cells stained with blue-black granules were considered NBT-positive cells. The 50% differentiation or effective concentration (ED50 or EC50) is shown in terms of molar (M) concentration of the […] tested.
(§1) The protocols of Examples 14 and 21 were used, for the NBT and MTT assays, respectively.

[2] = test system: HL-60 cells; assay: MTT assay in HL-60 cells; type: cell-based, human; conditions: for inhibition at 10 µM: 10^-5 M; for inhibition at 10 µM / inhibition at 1 µM / inhibition at 0.1 µM / inhibition at 0.01 µM: HL-60; for inhibition at 1 µM: 10^-6 M; for inhibition at 0.1 µM: 10^-7 M; for inhibition at 0.01 µM: 10^-8 M
Procedure: Human cancer cell lines (KB, A2780, MCF-7, HL-60, A549) were used. For a monolayer culture, 0.5 ml of trypsin solution ([…]) was added to the flasks for digestion. Microtiter plates (96 well) were used for the cell culture and 200 μl of cell suspension (1200 tumor cells) were placed in each well and incubated at 37° C. for 24 hours. Following the addition of the test compound, the control and treated flasks were placed in a CO2 incubator for 5 day culture. For the MTT assay, 200 μl of MTT solution (5 mg in 10 ml of phosphate buffer) plus the medium were added and incubated for another 4 hours. Following incubation, the supernatant was discarded and 200 μl of DMSO was added to each well. With a mild agitation the OD values were determined by the MR 700 Elisa at 570 nm (reference wavelength was 450 nm). The ED50 of the compound and tumor cell survival rate [formula] as percent inhibition were calculated.
as §1

[3] = test system: bone abnormalities in mouse fetus; assay: Bone abnormalities in mouse fetus (anti-teratogenicity); type: in vivo
Procedure: Female mice were examined by vaginal smear the morning after being caged with male mice, and if sperm or a vaginal plug was discovered, then the mice were determined to be pregnant. The retinoids were administered at the dosage indicated starting on the seventh day of pregnancy and continued once a day for the next ten days. On the 20th day after the female mice were determined to be pregnant, they were sacrificed by cervical dislocation. Both sides of the uterus were checked and the number of living embryos, dead embryos, and absorbed embryos were counted. The living embryos were further examined for bone abnormalities.
After the embryos became transparent, they were dissected and their skeletons were checked by observation under a microscope.

[4] = NBT reduction, 50% differentiation, HL-60 (Table 2), read-out: EC50
[5] = Homo sapiens, 120 h, MTT, HL-60 (Table 12), read-out: ED50 (the source's name)
[6] = Homo sapiens, 120 h, HL-60 (Table 15), read-out: MTT ED50
[7] = HL-60 (Table 15), read-out: NBT ED50

## CC(=O)c1cc2c(C)cc(OC(=O)/C=C(C)/C=C/C=C(C)/C=C/C3=C(C)CCCC3(C)C)cc2oc1=O [Compound I-2]
[1]; 10^-5 M
  NBT (+) %: 38%
[1]; [4]
  EC50: 2 µM

## CC(=O)c1cc2ccc(OC(=O)/C=C(C)/C=C/C=C(C)/C=C/C3=C(C)CCCC3(C)C)c(C)c2oc1=O [Compound I-3]
[1]; [4]
  EC50: 0.8 µM

## CC(=O)c1cc2c(C(=O)O)cc(OC(=O)/C=C(C)/C=C/C=C(C)/C=C/C3=C(C)CCCC3(C)C)cc2oc1=O [Compound I-4, 3-acetyl-5-carboxy-7-retinoyloxy coumarin]
[1]; [4]
  EC50: 0.07 µM

## CC(=O)c1cc2c(COC(=O)/C=C(C)/C=C/C=C(C)/C=C/C3=C(C)CCCC3(C)C)cc(OC(=O)/C=C(C)/C=C/C=C(C)/C=C/C3=C(C)CCCC3(C)C)cc2oc1=O [Compound I-7]
[1]; [4]
  EC50: 0.75 µM

## CC(=O)c1cc2c(OC(=O)/C=C(C)/C=C/C=C(C)/C=C/C3=C(C)CCCC3(C)C)c(C(=O)O)ccc2oc1=O [Compound I-8]
[1]; [4]
  EC50: 0.059 µM
[2]; [5]
  IC50: 0.1 µM
[2]; Homo sapiens, MTT
  inhibition at 10 µM: 63.9 ± 2.9%
  inhibition at 1 µM: 54 ± 1.9%
  inhibition at 0.1 µM: 50.5 ± 0.9%
  inhibition at 0.01 µM: 29.7 ± 1.4%

## CC(=O)c1cc2ccc(OC(=O)/C=C(C)/C=C/C=C(C)/C=C/C3=C(C)CCCC3(C)C)c(OC(=O)/C=C(C)/C=C/C=C(C)/C=C/C3=C(C)CCCC3(C)C)c2oc1=O [Compound I-9]
[1]; [4]
  EC50: 0.065 µM
[3]; 20 mg/kg
  Delayed Calcification, Occipital delay/fetus: 0/75
  Delayed Calcification, Sternum delay/fetus: 0/75
[3]; 40 mg/kg
  Delayed Calcification, Occipital delay/fetus: 3/77
  Delayed Calcification, Sternum delay/fetus: 2/77
[2]; [5]
  IC50: 0.95 µM
[2]; Homo sapiens, MTT
  inhibition at 10 µM: 61.5 ± 1.9%
  inhibition at 1 µM: 50.6 ± 0.5%
  inhibition at 0.1 µM: 48.8 ± 0.5%
  inhibition at 0.01 µM: 28 ± 5.2%

## CCOC(=O)c1cc(OC(=O)/C=C(C)/C=C/C=C(C)/C=C/C2=C(C)CCCC2(C)C)cc2oc(=O)c(C(C)=O)cc12 [Compound I-11, 3-acetyl-5-ethoxycarbyl-7-retinoyloxy-coumarin]
[1]; [4]
  EC50: 3 µM

## CCCCCCCCCCCCOC(=O)c1cc(OC(=O)/C=C(C)/C=C/C=C(C)/C=C/C2=C(C)CCCC2(C)C)c(OC(=O)/C=C(C)/C=C/C=C(C)/C=C/C2=C(C)CCCC2(C)C)c2oc(=O)c(C(=O)OCC)cc12 [Compound I-12]
[1]; [4]
  EC50: 0.01 µM

## CCc1cc2cc(C(C)=O)c(=O)oc2cc1OC(=O)/C=C(C)/C=C/C=C(C)/C=C/C1=C(C)CCCC1(C)C [Compound I-13]
[2]; [5]
  IC50: > 10 µM
[2]; Homo sapiens, MTT
  inhibition at 10 µM: 5.5 ± 3.9%
  inhibition at 1 µM: 4.3 ± 6.1%
  inhibition at 0.1 µM: 3.5 ± 3.9%

## CCCCCCc1cc2cc(C(C)=O)c(=O)oc2c(C)c1OC(=O)/C=C(C)/C=C/C=C(C)/C=C/C1=C(C)CCCC1(C)C [Compound I-14]
[2]; [5]
  IC50: 9 µM
[2]; Homo sapiens, MTT
  inhibition at 10 µM: 52.6 ± 1.3%
  inhibition at 1 µM: 30 ± 1.4%
  inhibition at 0.1 µM: 10.4 ± 2.4%

## CCOC(=O)c1cc2ccc(OC(=O)/C=C(C)/C=C/C=C(C)/C=C/C3=C(C)CCCC3(C)C)c(C)c2oc1=O [Compound I-15]
[1]; [4]
  EC50: 0.26 µM
[2]; [5]
  IC50: 0.9 µM
[2]; Homo sapiens, MTT
  inhibition at 10 µM: 54.5 ± 2.8%
  inhibition at 1 µM: 48.8 ± 1.3%
  inhibition at 0.1 µM: 34.6%
  inhibition at 0.01 µM: 16.2 ± 2.4%

## CCOC(=O)c1cc2ccc(OC(=O)/C=C(C)/C=C/C=C(C)/C=C/C3=C(C)CCCC3(C)C)cc2oc1=O [Compound I-17]
[1]; [4]
  EC50: 1 µM

## CCOC(=O)c1cc2cc(Cl)c(OC(=O)/C=C(C)/C=C/C=C(C)/C=C/C3=C(C)CCCC3(C)C)cc2oc1=O [Compound I-18]
[1]; [4]
  EC50: 10 µM

## CCOC(=O)c1cc2c(C(=O)O)cc(OC(=O)/C=C(C)/C=C/C=C(C)/C=C/C3=C(C)CCCC3(C)C)cc2oc1=O [Compound I-19]
[1]; 10^-4 M
  NBT (+) %: 84%
[1]; 10^-5 M
  NBT (+) %: 5%
[1]; 10^-7 M
  NBT (+) %: 92%
[1]; [4]
  EC50: 9 µM

## CCOC(=O)c1cc2c(OC(=O)/C=C(C)/C=C/C=C(C)/C=C/C3=C(C)CCCC3(C)C)cc(OC(=O)/C=C(C)/C=C/C=C(C)/C=C/C3=C(C)CCCC3(C)C)cc2oc1=O [Compound I-21]
[1]; [4]
  EC50: 0.25 µM
[2]; [5]
  IC50: 1 µM
[2]; Homo sapiens, MTT
  inhibition at 10 µM: 61.2 ± 2.4%
  inhibition at 1 µM: 49.9 ± 2.5%
  inhibition at 0.1 µM: 32.5 ± 1.1%
  inhibition at 0.01 µM: 21.8 ± 3.1%

## CC1=C(/C=C/C(C)=C/C=C/C(C)=C/C(=O)Oc2cc(C(=O)O)c3cc(C(N)=O)c(=O)oc3c2)C(C)(C)CCC1 [Compound I-26]
[1]; [4]
  EC50: 0.08 µM
[2]; [5]
  IC50: 0.9 µM
[2]; Homo sapiens, MTT
  inhibition at 10 µM: 68.7 ± 0.2%
  inhibition at 1 µM: 52.6 ± 0.5%
  inhibition at 0.1 µM: 43.8 ± 1.3%
  inhibition at 0.01 µM: 9.4 ± 3.7%

## CC1=C(/C=C/C(C)=C/C=C/C(C)=C/C(=O)Oc2cc3oc(=O)c(C(N)=O)cc3cc2Cl)C(C)(C)CCC1 [Compound I-27]
[1]; [4]
  EC50: 0.55 µM

## CC1=C(/C=C/C(C)=C/C=C/C(C)=C/C(=O)Oc2cc(=O)oc3ccc(C(C)(C)C)cc23)C(C)(C)CCC1 [Compound I-28, 4-retinoyloxy-6-t-butyl-coumarin]
[2]; [6]
  IC50: > 10 µM

## CC1=C(/C=C/C(C)=C/C=C/C(C)=C/C(=O)Oc2cc(=O)oc3c(C)cccc23)C(C)(C)CCC1 [Compound I-29]
[1]; [7]
  EC50: > 10 µM
[2]; [6]
  IC50: 1.9 µM

## CC1=C(/C=C/C(C)=C/C=C/C(C)=C/C(=O)Oc2ccc3c(C)cc(=O)oc3c2C)C(C)(C)CCC1 [Compound I-30]
[2]; [6]
  IC50: > 10 µM

## CCc1cc2c(C)cc(=O)oc2cc1OC(=O)/C=C(C)/C=C/C=C(C)/C=C/C1=C(C)CCCC1(C)C [Compound I-31, 4-methyl-6-ethyl-7-retinoyloxy-coumarin]
[2]; [6]
  IC50: > 10 µM

## CC1=C(/C=C/C(C)=C/C=C/C(C)=C/C(=O)Oc2ccc3c(C)cc(=O)oc3c2)C(C)(C)CCC1 [Compound I-32, 4-methyl-7-retinoyloxy-coumarin]
[2]; HL-60 (Table 15), 7200 min, read-out: MTT ED50
  IC50: 11 µM

## CC1=C(/C=C/C(C)=C/C=C/C(C)=C/C(=O)Oc2cc(OC(=O)/C=C(C)/C=C/C=C(C)/C=C/C3=C(C)CCCC3(C)C)c3c(C)cc(=O)oc3c2)C(C)(C)CCC1 [Compound I-33, 4-methyl-5,7-diretinoyloxy-coumarin]
[1]; [7]
  EC50: > 10 µM
[2]; [6]
  IC50: 3.2 µM

## CCCCCCc1cc2c(C)cc(=O)oc2cc1OC(=O)/C=C(C)/C=C/C=C(C)/C=C/C1=C(C)CCCC1(C)C [Compound I-34, 4-methyl-6-hexyl-7-retinoyloxy-coumar in]
[2]; [6]
  IC50: > 10 µM

## CC1=C(/C=C/C(C)=C/C=C/C(C)=C/C(=O)Oc2cc(=O)oc3ccc(C)cc23)C(C)(C)CCC1 [Compound I-35, 4-retinoyloxy-6-methyl-coumarin]
[1]; [7]
  EC50: 6.7 µM
[2]; [6]
  IC50: 2.6 µM

## CC1=C(/C=C/C(C)=C/C=C/C(C)=C/C(=O)Oc2ccc3c(C)cc(=O)oc3c2OC(=O)/C=C(C)/C=C/C=C(C)/C=C/C2=C(C)CCCC2(C)C)C(C)(C)CCC1 [Compound I-36, 4-methyl-7,8-diretinoyloxy-coumarin]
[1]; [7]
  EC50: > 10 µM
[2]; [6]
  IC50: 3.2 µM
